Key:
3T3 cells = test: Fibroblast proliferation assay (trypan blue cell counting); type: cell-based, Human; conditions: 72 h, mean±SEM
Description: Human fibro blast cell line 3T3 were cultured in high-glucose Dulbecco's modified Eagle's medium (DMEM) containing 10% fetal bovine serum (FBS), 4 mM L-glutamine, 2 mM sodium pyruvate and 1% penicillin/streptomycin (Invitrogen GibcoBRL, Carlsbad, Calif., USA) at 37° C. under 5% CO2. For cell proliferation assay, 3T3 cells were plated at 1×10^5 per well (6-well plate). 24 h after plating, cells were treated with indicated concentration of adenine for 72 h and the number of viable cells was counted. Cells were detached using trypsin-EDTA solution and stained with trypan blue. The living cells were counted using hemocytometer. […] Data are presented as the mean±SEM of three independent experiments.

high-fat diet-fed mice = test: Anti-diabetic effects in high-fat diet-fed mice (type 2 diabetes model); type: in vivo, C57BL/6J mice; conditions: IP 0.1 to 50 mg/kg twice a day for 6 days
Description: To further evaluate the effects of adenine on the modulation of plasma glucose level, the high-fat diet-fed mice were served as a type 2 diabetes animal model. C57BL/6J mice were maintained at 22° C. under a 12-h light/dark cycle and fed either a high fat diet (60% kcal % fat) or a normal diet ad libitum. Intraperitoneal injections of adenine (0.1 to 50 mg/kg) or vehicle were given to the high-fat diet-fed mice from the age of 24 weeks and glucose readings were measure at 1 and 3 hr. IP administration of adenine or vehicle only to the high-fat diet-fed mice continued twice a day for 6 days. On day 6, plasma was collected 1 hr after the last dosing for analyzing, evaluating, measuring plasma glucose and triglycerides.

Aβ infusion mice = test: Aβ-induced Alzheimer's disease model mice, Morris water maze; type: in vivo, C57BL/6J mice; conditions: daily IP 0.01, 0.1, 5 or 30 mg/kg for 4 weeks
Description: Aβ25-35 was purchased from Sigma-Aldrich (St. Louis, Mo.). The peptides were dissolved in distilled saline and aggregated by incubation at 37° C. for 7 days before injection. C57BL/6J mice were maintained at 22° C. under a 12-h light/dark cycle. Adult mice were anesthetized by ketamine (500 mg/kg) and xylazine (100 mg/kg) and placed in a stereotaxic frame (Stoelting, Wood Dale, Ill., USA). 5 nmol of the aggregated A1325-35 were injected into the lateral ventricle using a 10-μ1 Hamilton syringe (Hamilton Company, Reno, Nev., USA). The target anterior-posterior (AP), medial-lateral (ML) and dorsoventral coordinates were −0.5 mm, ±1 mm and −2.5 mm relative to the bregma. To evaluate the effect of adenine on neurodegenerative disease, Aβ infusion mice were daily intraperitoneally injected with 0.01, 0.1, 5 or 30 mg/kg bodyweight of adenine or vehicle for 4 weeks. The cognitive functions of these mice were analyzed by using Morris water maze assay after 4 weeks injection. The water maze was performed in a circular pool filled with water and a platform was submerged below the water's surface in the target quadrant for hidden platform test. […] Mice were allowed to swim in the maze for 60 s and recorded by a video camera. The latency to find the platform and swim paths were analyzed by EthoVision software (Version 3.1, Noldus, The Netherlands).

LC3 = test: Autophagy assay in Neuro2A cells (LC3-II/LC3-I western blot); type: cell-based, mouse; conditions: 24 h
Description: Amyloid β peptide and autophagy assay Effects of adenine on Amyloid β peptide were analyzed in mouse neuroblastoma cell Neuro2A. Neuro2A cells were cultured in high-glucose Dulbecco's modified Eagle's medium (DMEM) containing 10% fetal bovine serum (FBS), 4 mM L-glutamine, 2 mM sodium pyruvate and 1% penicillin/streptomycin (Invitrogen GibcoBRL, Carlsbad, Calif., USA) at 37° C. under 5% CO2. Cells were plated at 3×10^5 per well (6-well plate). 24 h after plating, cells were transfected with human APP695 and treated with indicated concentration of adenine for 24 h followed by cell lysis and western blot analysis. Equal amounts of protein were separated by SDS-PAGE and then electroblotted on to PVDF membranes. Membranes were blocked with 3% BSA in PBS for 60 min and incubated with an anti-Aβ antibody (1:1,000, abcam), an anti-LC3 antibody (1:1,000, Cell signaling), and an anti-actin antibody (1:5,000, Cell signaling) at 4° C. overnight followed by the corresponding secondary antibody for 1 h at room temperature (RT). Immunoreactive bands were detected by enhanced chemiluminescence (ECL; Pierce, Rockford, Ill., USA) and recorded using Kodakfilm (Rochester, N.Y., USA). The detected signals were scanned and then quantified by using TotalLab Quant software (TotalLab).
Because the conversion of LC3-I to LC3-II is indicative of autophagy activity, the higher LC3-II/LC3-I ratio in adenine treated cells reflects the ability of adenine to induce autophagy activity.

TNFα = test: LPS-induced inflammatory response in THP1 macrophage, secreted TNFα (ELISA); type: cell-based, human; conditions: THP1 macrophages, 50 ng LPS 6 hr
Description: (§1) Effects of adenine on inflammatory response were evaluated in human THP1 macrophage by examining protein level of intracellular COX-2 and secreted TNFα, IL-1β and IL-6. Differentiation of THP1 monocytes into macrophages was induced by 50 nM PMA for 24 hr. THP1 macrophages were further stimulated by 50 ng LPS for 6 hr in the presence of 10-600 μM of adenine or vehicle followed by cell lysis and western blot analysis. Equal amounts of protein were separated by SDS-PAGE and then electroblotted on to PVDF membranes. Membranes were blocked with 3% BSA in PBS for 60 min and incubated with an anti-COX-2 antibody (1:1,000, Cell signaling), an anti-actin antibody (1:5,000, Cell signaling) at 4° C. overnight followed by the corresponding secondary antibody for 1 h at room temperature (RT). Immunoreactive bands were detected by enhanced chemiluminescence (ECL; Pierce, Rockford, Ill., USA) and recorded using Kodak film (Rochester, N.Y., USA). The detected signals were scanned and then quantified using TotalLab Quant software (TotalLab). The secreted TNFα, IL-1β and IL-6 were analyzed by enzyme-linked immunosorbent assays.

IL-1β = test: LPS-induced inflammatory response in THP1 macrophage, secreted IL-1β (ELISA); type: cell-based, human; conditions: THP1 macrophages, 50 ng LPS 6 hr
Description: as §1

[1] = tested on: 6-mm full-thickness excisional skin wounds; test: Excisional skin wound healing and scar formation in mice; type: in vivo, C57BL/6J mice
Description: C57BL/6J mice were maintained at 22° C. under a 12-h light/dark cycle. The experiments were performed with 12-weeks old mice. After anesthetized by an intraperitoneal injection of ketamine (500 mg/kg) and xylazine (100 mg/kg), 6-mm full-thickness excisional skin wounds was made on the backs of mice using 6-mm skin biopsy punches. Immediately after wounding, 10-1200 M of adenine in 25 l saline or saline alone was applied to the wound bed. The skin wounds were then covered by semipermeable transparent dressing and fixed to the skin. The mice were treated with adenine or vehicle for 14 days and then sacrificed. The scar formation is assessed by Masson's trichrome staining to observe the fibrosis process and the collagen framework of the healed wound (Fixed by 4% paraformaldehyde).

**Q.** What does the source list for `Nc1ncnc2nc[nH]c12` [Adenine, adenine]?
**A.** Cell number (% to control) (3T3 cells; adenine 10 microM): 91 ± 2.7 % to control; Cell number (% to control) (3T3 cells; adenine 50 microM): 73 ± 8.1 % to control; Cell number (% to control) (3T3 cells; adenine 100 microM): 64 ± 5.3 % to control; Cell number (% to control) (3T3 cells; adenine 200 microM): 48 ± 2.8 % to control; Cell number (% to control) (3T3 cells; adenine 500 microM): 33 ± 6.4 % to control; Cell number (% to control) (3T3 cells; adenine 1000 microM): 27 ± 11.3 % to control; lower body weight compare to the control group (high-fat diet-fed mice): more than 15%; lower plasma glucose compare to the control group (high-fat diet-fed mice; plasma 1 hr after last dosing): > 30%; lower plasma triacylglycerides compare to the control group (high-fat diet-fed mice; plasma 1 hr after last dosing): more than 35%; lower plasma glucose compare to the control group (high-fat diet-fed mice; plasma 1 hr after last dosing, listed as adenine): more than 30%; percentage time in target quadrant, probe assay (Aβ infusion mice): higher percentage time in target quadrant; time to find platform, hidden platform test (Aβ infusion mice; dose-dependent): significantly shorter time to find platform; LC3-II/LC3-Iratio (relative to control) (LC3; adenine 10 microM): 1.2 ± 0.1 relative to control; LC3-II/LC3-Iratio (relative to control) (LC3; adenine 20 microM): 1.8 ± 0.3 relative to control; LC3-II/LC3-Iratio (relative to control) (LC3; adenine 30 microM): 2.8 ± 0.2 relative to control; LC3-II/LC3-Iratio (relative to control) (LC3; adenine 40 microM): 2.9 ± 0.2 relative to control; LC3-II/LC3-Iratio (relative to control) (LC3; adenine 50 microM): 3.2 ± 0.3 relative to control; TNF•(% to control) (TNFα; adenine 10 microM): 85 ± 9.1 % to control; TNF•(% to control) (TNFα; adenine 100 microM): 41 ± 2.6 % to control; TNF•(% to control) (TNFα; adenine 600 microM): 23 ± 1.8 % to control; IL-1β•(% to control) (IL-1β; adenine 10 microM): 91 ± 8.4 % to control; IL-1β•(% to control) (IL-1β; adenine 100 microM): 29 ± 5.5 % to control; IL-1β•(% to control) (IL-1β; adenine 600 microM): 17 ± 3.7 % to control; scar width ([1]; topical adenine, 14 days post-wounding, vs vehicle treated wounds): significantly decreased the scar width; extent of wound closure ([1]; topical, 10-1200 µM of adenine in 25 µl saline, 14 days of treatment, dose-dependent, vs control mice): significantly greater
